# Columns and labels:
# Recombinant PLA2G1B = target: T1, Recombinant PLA2G1B (Homo sapiens, UniProt P04054); test: Bioassay of IL-7-induced pSTAT5 nuclear translocation in CD4 T cells exposed to recombinant PLA2G1B; type: cell-based
# T1 construct: made in house; host or cells: E. coli (inclusion bodies, urea-solubilized, renatured, HPLC-purified)
# Protocol: sPLA2G1B was produced in E. Coli. Inclusion bodies were solubilized in urea and afterwards renatured. sPLA2G1B was further purified by HPLC. Homogeneity of the preparations was verified by MassSpectrometry (Malditoff). The specific activity of the enzyme was always measured and compared to standard preparations.
# (§1) Inhibition of IL-7-induced phosphorylated STAT5 nuclear translocation (NTpSTAT) was measured as follows: VP plasma (5 or 10%) was first incubated with purified HD CD4 T cells (20 min) before stimulation by IL-7 (2 nM, 15 min.). Cells were then plated on polylysine coated glass slides before fixation by PFA (1.5%) and permeabilization by methanol (90% at −20° C.). pSTAT5 was then stained by rabbit anti-STAT5 and labeled with goat anti-rabbit-Atto642. The cells were analyzed by pulsed STED microscopy and the number of nuclei expressing pSTAT5 were counted.
# The experiment was repeated twice. From the experimental data we derived the corresponding theoretical curve that gives the IC50.
# sPLA2GIIE = target: T2, sPLA2GIIE (Homo sapiens, UniProt Q9NZK7); test: sPLA2 specificity panel (Table 1); type: biochemical; conditions: panel of secreted PLA2, result in words
# T2 sequence (Q9NZK7 20-142): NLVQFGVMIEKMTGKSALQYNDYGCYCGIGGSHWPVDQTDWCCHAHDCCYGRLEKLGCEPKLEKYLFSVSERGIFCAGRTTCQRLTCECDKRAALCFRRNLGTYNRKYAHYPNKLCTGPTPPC
# sPLA2GIB = sPLA2GIB (Homo sapiens, UniProt P04054); test: sPLA2 specificity panel (Table 1); type: biochemical; conditions: panel of secreted PLA2, result in words
# sPLA2GIB, sequence (P04054 23-148): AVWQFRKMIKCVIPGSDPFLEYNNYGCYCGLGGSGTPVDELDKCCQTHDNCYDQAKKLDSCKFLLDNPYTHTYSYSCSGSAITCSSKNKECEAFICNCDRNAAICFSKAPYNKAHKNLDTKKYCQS
# [1] = target: T3, sPLA2G1B contained in plasma of viremic patients (Homo sapiens, UniProt P04054); test: Bioassay of IL-7-induced pSTAT5 nuclear translocation in healthy-donor CD4 T cells exposed to plasma/sera of viremic HIV-infected patients; type: cell-based; conditions: for reversion of inhibition of pSTAT5 nuclear translocation: 50 μM compound; for reversal of plasma/sera-induced inhibition of IL-7-induced NT pSTAT5: 50 microM compound
# T3 construct: CD4 lymphocytes purified from healthy donors were exposed to sera from viremic HIV-infected patients at 3% dilution; from tissue; host or cells: plasma/sera of viremic HIV-infected patients, applied to CD4 T cells of healthy donors
# T3 sequence (P04054 23-148): as above
# Protocol: Five sera were tested and the results are given as the median +/−SD.
# Viremic patients (VP) included in the study had been HIV-positive for more than one year. […] All blood samples from VP were drawn at Hôpital Bicêtre or Centre Hospitalier de Gonesse.
# as §1
# We have already shown that sPLA2G1B contained in plasma of viremic patients through induction of aMMD induces a blockade of IL-7-induced nuclear translocation of phospho STAT5 (NT pSTAT5).
# The effects of plasma from various HIV viremic patients (at least 5) were first titrated on the inhibition of IL-7-induced NTpSTAT5. The inhibition is measurable at 1% dilution of the plasma and the effect is maximum at 10% of the plasma. Consequently, in the experiments we used the different plasma at 3% dilution which gives between 30 to 70% of the maximum inhibition. […] The inhibition obtained with the recombinant enzyme reaches a plateau corresponding to a maximum inhibition of around 80%. By contrast, the plateau obtained when the plasma is used is around 90% inhibition, or more (compare data of FIGS. 1 and 2 with data FIG. 3).
# In a further study, the plasma from 5 additional HIV-infected patients was tested. […] 100% inhibition of nuclear translocation of pSTAT5 is observed (see FIG. 4).
# sPLA2GV = target: T4, sPLA2GV (Homo sapiens, UniProt P39877); test: sPLA2 specificity panel (Table 1); type: biochemical; conditions: panel of secreted PLA2, result in words
# T4 sequence (P39877 21-138): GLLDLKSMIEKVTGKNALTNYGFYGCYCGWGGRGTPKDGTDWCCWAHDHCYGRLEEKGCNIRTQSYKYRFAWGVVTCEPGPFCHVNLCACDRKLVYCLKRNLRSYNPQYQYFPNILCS
# From the text: IC50 values for a panel of secreted Phospholipase A2 (sPLA2) are shown.
# sPLA2GXIIA = target: T5, sPLA2GXIIA (Homo sapiens, UniProt Q9BZM1); test: sPLA2 specificity panel (Table 1); type: biochemical; conditions: panel of secreted PLA2, result in words
# T5 sequence (Q9BZM1 23-189): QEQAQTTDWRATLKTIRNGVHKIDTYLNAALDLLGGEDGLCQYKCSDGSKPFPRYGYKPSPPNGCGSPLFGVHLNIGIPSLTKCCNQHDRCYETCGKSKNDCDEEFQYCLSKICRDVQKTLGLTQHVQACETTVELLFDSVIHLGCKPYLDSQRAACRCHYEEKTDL
# sPLA2GIID = target: T6, sPLA2GIID (Homo sapiens, UniProt Q9UNK4); test: sPLA2 specificity panel (Table 1); type: biochemical; conditions: panel of secreted PLA2, result in words
# T6 sequence (Q9UNK4 21-145): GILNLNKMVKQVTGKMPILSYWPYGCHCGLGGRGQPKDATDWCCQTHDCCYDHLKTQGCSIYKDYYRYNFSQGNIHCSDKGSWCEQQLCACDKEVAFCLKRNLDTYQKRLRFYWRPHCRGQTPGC
# sPLA2G1B = sPLA2G1B (Homo sapiens, UniProt P04054); test: E. coli membrane sPLA2 activity assay ([3H]oleic acid release); type: biochemical
# sPLA2G1B, sequence (P04054 23-148): as the sequence (P04054 23-148) above
# Protocol: The activity of compounds of formula A towards sPLA2G1B can be tested and verified using the E. coli membrane assay described below:
# The assay is based on the ability of E. coli membranes to incorporate exogenously added fatty acids such as oleic acid (OA). The use of radiolabelled OA allows to follow the incorporation of this fatty acid into membrane phospholipids of E. Coli and its release upon PLA2-mediated hydrolysis of these membranes. Preincubation of the samples, before the assay, with a specific inhibitor or a neutralizing specific antibody directed against the given sPLA2 can indicate which sPLA2 type is detected.
# An overnight culture of E. coli was diluted 1:20 in Luria Broth (LB) medium and incubated at 37° C. for 5 h with vigorous shaking in the presence of 1 mCi/ml [3H]OA (NET 289, NEN, 5 mCi/ml). […]
# The reaction was carried out in a 37° C. water bath for 30 min and stopped with stop buffer containing 0.1 M EDTA and 0.2% free-fatty acids BSA. Then the tubes were centrifuged to spin down E. Coli membranes and aliquotes of supernatants were counted to monitor the [3H]OA released from these membranes. […]
# The sPLA2 activity (A) is calculated as follows: A=A1−A2/B×100. […]
# A is expressed as the % hydrolysis of the total radioactivity incorporated in the E. coli membranes.
# sPLA2GIII = target: T7, sPLA2GIII (Homo sapiens, UniProt Q9NZ20); test: sPLA2 specificity panel (Table 1); type: biochemical; conditions: panel of secreted PLA2, result in words
# T7 sequence (Q9NZ20 20-509): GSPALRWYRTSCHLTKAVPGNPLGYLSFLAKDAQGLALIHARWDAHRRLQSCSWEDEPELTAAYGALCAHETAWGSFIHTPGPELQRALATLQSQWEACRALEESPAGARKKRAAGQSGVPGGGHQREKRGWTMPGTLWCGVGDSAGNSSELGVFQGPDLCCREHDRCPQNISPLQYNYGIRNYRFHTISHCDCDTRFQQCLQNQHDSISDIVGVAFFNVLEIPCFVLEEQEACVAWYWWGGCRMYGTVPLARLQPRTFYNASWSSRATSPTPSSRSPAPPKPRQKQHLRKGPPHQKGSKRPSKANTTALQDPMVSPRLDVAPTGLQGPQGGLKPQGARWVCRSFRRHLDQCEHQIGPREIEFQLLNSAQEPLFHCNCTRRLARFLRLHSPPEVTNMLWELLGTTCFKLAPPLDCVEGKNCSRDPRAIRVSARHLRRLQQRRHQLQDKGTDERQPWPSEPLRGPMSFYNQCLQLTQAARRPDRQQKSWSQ
# [2] = recombinant PLA2G1B 75 nanoM, pre-exposed 30 mn to compound, FIG. 1
# T1 sequence (P04054 23-148): as the sequence (P04054 23-148) above
smiles,measurement,setting,value
CCc1c(C(=O)C(N)=O)c2c(OCC(=O)O)cccc2n1Cc1ccccc1 [Compound B],IC50,Recombinant PLA2G1B,6.01 µM
same,concentration at which inhibitory effects are maximum,Recombinant PLA2G1B; [2],8 µM
same,concentration at which inhibitory effects begin,Recombinant PLA2G1B; [2],5 µM
same,"plateau, maximum inhibition",Recombinant PLA2G1B; recombinant enzyme in serum free buffer,around 80%
same,IC50 sPLA2GIIE,sPLA2GIIE,significant IC50
same,IC50 sPLA2GIB,sPLA2GIB,significant IC50
same,reversion of inhibition of pSTAT5 nuclear translocation,"[1]; 1% plasma, FIG. 4",the reversion is complete
same,reversion of inhibition of pSTAT5 nuclear translocation,"[1]; 3% plasma, FIG. 4",about 90%
same,reversal of plasma/sera-induced inhibition of IL-7-induced NT pSTAT5,"[1]; sera at 1% or 3% dilution, 5 additional patients, FIG. 4",completely reverse this inhibition
same,reversal of plasma/sera-induced inhibition of IL-7-induced NT pSTAT5,"[1]; sera at 1% or 3% dilution, 5 additional patients, FIG. 4, listed as compound B",totally reversed this inhibition
same,reversal of plasma/sera-induced inhibition of IL-7-induced NT pSTAT5,"[1]; sera at 3% dilution, five sera, FIG. 3",revert the inhibitory activity of the plasma
same,reversal of plasma/sera-induced inhibition of IL-7-induced NT pSTAT5,"[1]; sera at 3% dilution, five sera, FIG. 3, listed as compound B",totally reversed this inhibition
same,plateau inhibition when plasma is used,[1]; plasma of viremic patients,≥ 90%
same,IC50 sPLA2GV,sPLA2GV,significant IC50
same,recognition/binding of sPLA2GXIIA,sPLA2GXIIA,does not recognize or bind
same,IC50 sPLA2GIID,sPLA2GIID,significant IC50
same,inhibitory effect on sPLA2G1B activity,sPLA2G1B,particularly strong inhibitory effect
same,recognition/binding/activity towards sPLA2GIII (group III PLA2),sPLA2GIII,does not recognize or bind
same,recognition/binding/activity towards sPLA2GIII (group III PLA2),sPLA2GIII; listed as compound B,no activity
